Source: US12018021B2 (UCB Biopharma SRL, priority 2018, dated 2024)

Target: IgE-Tb / FcεRIα-Y131A-AF488 (Homo sapiens, UniProt P01854)
Assay: IgE-Tb / FcεRIα-Y131A-AF488 FRET assay (protocol for examples 1 to 233)
Type: binding
Details: examples 1 to 233: 5 nM IgE-Tb, 25 nM FcεRIα-Y131A-AF488, incubated 2 hours at room temperature; read-out: Y131A FRET IC50 range
Outline: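 TR-FRET displacement with 5 nM IgE-Tb and 25 nM FcεRIα-Y131A-AF488 (final), 10-point 3-fold compound dilutions from typically 10 μM top, 2% DMSO, 2 h at room temperature. Excitation 330 nm, 520/495 nm emission ratio; MIN set with 200 nM unlabelled FcεRIα. IC50 from four-parameter logistic fit of percent inhibition.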

IgE-Tb / FcεRIα-Y131A-AF488, sequence (P01854 1-427 limits assumed, stated change not applied): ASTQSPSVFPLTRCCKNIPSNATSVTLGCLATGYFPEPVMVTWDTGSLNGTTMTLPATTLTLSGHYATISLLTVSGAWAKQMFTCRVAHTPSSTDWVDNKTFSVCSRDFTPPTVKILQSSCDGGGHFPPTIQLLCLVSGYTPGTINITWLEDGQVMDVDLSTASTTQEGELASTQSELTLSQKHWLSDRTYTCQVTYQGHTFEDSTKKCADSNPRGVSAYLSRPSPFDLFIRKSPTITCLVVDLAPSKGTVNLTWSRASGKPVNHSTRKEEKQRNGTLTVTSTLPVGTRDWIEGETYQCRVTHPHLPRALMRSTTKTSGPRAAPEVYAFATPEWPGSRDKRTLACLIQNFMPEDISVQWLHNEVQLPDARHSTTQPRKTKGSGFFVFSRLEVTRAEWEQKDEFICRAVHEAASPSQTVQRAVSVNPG

Row | SMILES | IC50
1 | Cn1nc(C(F)(F)F)cc1Nc1nncn1[C@H]1CCc2sc(NC(=O)C3CC3)c(C(=O)NCC3CC3)c2C1 [Example 221, (5S)-2-(cyclopropanecarbonylamino)-N-(cyclopropylmethyl)-5-[3-[[2-methyl-5-(trifluoromethyl)pyrazol-3-yl]amino]-1,2,4-triazol-4-yl]-4,5,6,7-tetrahydrobenzothiophene-3-carboxamide] | < 1000 nM
2 | O=C(NCC1CC1)c1c(NC(=O)C2CC2)sc2c1C[C@@H](n1ccnc1Nc1cccnc1)CC2 [Example 127, (5S)-2-(Cyclopropanecarbonylamino)-N-(cyclopropylmethyl)-5-[2-(3-pyridylamino)imidazol-1-yl]-4,5,6,7-tetrahydrobenzothiophene-3-carboxamide] | < 1000 nM
3 | N#CC1CCCc2c1sc(NC(=O)C1CC1)c2C(=O)NCC1CC1 (stereo not shown) [Example 65, 7-Cyano-2-(cyclopropanecarbonylamino)-N-(cyclopropylmethyl)-4,5,6,7-tetrahydrobenzothiophene-3-carboxamide] | 1000 to 10000 nM
4 | O=C(NCC1CC1)c1c(NC(=O)C2CC2)sc2c1CC(C(=O)Nc1nnn[nH]1)CC2 (stereo not shown) [Example 51, 2-(Cyclopropanecarbonylamino)-N3-(cyclopropylmethyl)-N5-(1H-tetrazol-5-yl)-4,5,6,7-tetrahydrobenzothiophene-3,5-dicarboxamide] | < 1000 nM
5 | O=C(Nc1cccc(-c2ccno2)c1)C1CCc2sc(NC(=O)C3CC3)c(S(=O)(=O)NCC3CC3)c2C1 (stereo not shown) [Example 35, 2-(Cyclopropanecarbonylamino)-3-(cyclopropylmethylsulfamoyl)-N-(3-isoxazol-5-ylphenyl)-4,5,6,7-tetrahydrobenzothiophene-5-carboxamide] | < 1000 nM
6 | O=C(NCC1CC1)c1c(NC(=O)C2CC2)sc2c1C[C@@H](n1cnnc1NCC1CC1)CC2 [Example 130, (5S)-2-(Cyclopropanecarbonylamino)-N-(cyclopropylmethyl)-5-[3-(cyclopropylmethylamino)-1,2,4-triazol-4-yl]-4,5,6,7-tetrahydrobenzothiophene-3-carboxamide] | < 1000 nM
7 | O=C(NCC1CC1)c1c(NC(=O)C2CC2)sc2c1C[C@H](C(F)(F)F)CC2 [Example 66, (5R)-2-(Cyclopropanecarbonylamino)-N-(cyclopropylmethyl)-5-(trifluoromethyl)-4,5,6,7-tetrahydrobenzothiophene-3-carboxamide] | 1000 to 10000 nM
8 | CCNC(=O)C1CCCc2c1sc(NC(=O)C1CC1)c2C(=O)NCC1CC1 (stereo not shown) [Example 98, 2-(Cyclopropanecarbonylamino)-N3-(cyclopropylmethyl)-N7-ethyl-4,5,6,7-tetrahydrobenzothiophene-3,7-dicarboxamide] | 10000 to 50000 nM
9 | CC(C)CNS(=O)(=O)c1c(NC(=O)C2CC2)sc2c1CC(NS(C)(=O)=O)CC2 (stereo not shown) [Example 24, N-[3-(Isobutylsulfamoyl)-5-(methanesulfonamido)-4,5,6,7-tetrahydrobenzothiophen-2-yl]cyclopropanecarboxamide] | < 1000 nM
10 | Cc1ccc(N2CC3(CCc4sc(NC(=O)C5CC5)c(C(=O)NCC5CC5)c4C3)OC2=O)cc1 (stereo not shown) [Example 61, 2-(Cyclopropanecarbonylamino)-N-(cyclopropylmethyl)-2′-oxo-3′-(p-tolyl)spiro[6,7-dihydro-4H-benzothiophene-5,5′-oxazolidine]-3-carboxamide] | < 1000 nM
11 | O=C(NCC1CC1)c1c(NC(=O)C2CC2)sc2c1CC(C(=O)Nc1cccnc1)CC2 (stereo not shown) [Example 54, 2-(Cyclopropanecarbonylamino)-N3-(cyclopropylmethyl)-N5-(3-pyridyl)-4,5,6,7-tetrahydrobenzothiophene-3,5-dicarboxamide] | < 1000 nM
12 | CC1CCc2sc(NC(=O)C3CC3)c(C(=O)NCC3CC3)c2C1 (stereo not shown) [Example 82, 2-(Cyclopropanecarbonylamino)-N-(cyclopropylmethyl)-5-methyl-4,5,6,7-tetrahydrobenzothiophene-3-carboxamide] | 1000 to 10000 nM
13 | CC1CCc2sc(NC(=O)C3CC3)c(C(=O)NCC3CC3)c2C1C (stereo not shown) [Example 89, 2-(Cyclopropanecarbonylamino)-N-(cyclopropylmethyl)-4,5-dimethyl-4,5,6,7-tetrahydrobenzothiophene-3-carboxamide] | 1000 to 10000 nM
14 | Cc1cc(Nc2nncn2C2CCc3sc(NC(=O)C4CC4)c(C(=O)NC4CC(F)(F)C4)c3C2)n(C)n1 (stereo not shown) [Example 185, 2-(cyclopropanecarbonylamino)-N-(3,3-difluorocyclobutyl)-5-[3-[(2,5-dimethylpyrazol-3-yl)amino]-1,2,4-triazol-4-yl]-4,5,6,7-tetrahydrobenzothiophene-3-carboxamide] | < 1000 nM
15 | Cc1cc(Nc2nncn2[C@H]2CCc3sc(NC(=O)C4CC4)c(C(=O)NCC(C)C)c3C2)n(C)n1 [Example 108, (5S)-2-(Cyclopropanecarbonylamino)-5-[3-[(2,5-dimethylpyrazol-3-yl)amino]-1,2,4-triazol-4-yl]-N-isobutyl-4,5,6,7-tetrahydrobenzothiophene-3-carboxamide] | < 1000 nM
16 | Cc1cc(N(C)c2nncn2[C@H]2CCc3sc(NC(=O)C4CC4)c(C(=O)NCC4CC4)c3C2)n(C)n1 [Example 214, (5S)-2-(cyclopropanecarbonylamino)-N-(cyclopropylmethyl)-5-[3-[(2,5-dimethylpyrazol-3-yl)-methyl-amino]-1,2,4-triazol-4-yl]-4,5,6,7-tetrahydrobenzothiophene-3-carboxamide] | 1000 to 10000 nM
17 | O=C(NCC1CC1)c1c(NC(=O)C2CC2)sc2c1CC(Nc1cc(=O)cc[nH]1)CC2 (stereo not shown) [Example 158, 2-(Cyclopropanecarbonylamino)-N-(cyclopropylmethyl)-5-[(4-oxo-1H-pyridin-2-yl)amino]-4,5,6,7-tetrahydrobenzothiophene-3-carboxamide] | < 1000 nM
18 | CC(=O)NC1CCc2sc(NC(=O)C3CC3)c(C(=O)NCC3CC3)c2C1 (stereo not shown) [Example 206, 5-Acetamido-2-(cyclopropanecarbonylamino)-N-(cyclopropylmethyl)-4,5,6,7-tetrahydrobenzothiophene-3-carboxamide] | 1000 to 10000 nM
19 | O=C(NCC1CC1)c1c(NC(=O)C2CC2)sc2c1CC(Nc1ncc3ccccc3n1)CC2 (stereo not shown) [Example 182, 2-(Cyclopropanecarbonylamino)-N-(cyclopropylmethyl)-5-(quinazolin-2-ylamino)-4,5,6,7-tetrahydrobenzothiophene-3-carboxamide] | < 1000 nM
20 | NC1CCc2sc(NC(=O)C3CC3)c(C(=O)NCC3CC3)c2C1 (stereo not shown) [Example 109, 5-Amino-2-(cyclopropanecarbonylamino)-N-(cyclopropylmethyl)-4,5,6,7-tetrahydrobenzothiophene-3-carboxamide] | 10000 to 50000 nM
21 | CON=C(Nc1ccc(C)cc1)NC1CCc2sc(NC(=O)C3CC3)c(C(=O)NCC3CC3)c2C1 (stereo not shown) [Example 168, 2-(Cyclopropanecarbonylamino)-N-(cyclopropylmethyl)-5-[[N′-methoxy-N-(p-tolyl)carbamimidoyl]amino]-4,5,6,7-tetrahydrobenzothiophene-3-carboxamide] | < 1000 nM
22 | O=C(NCC1CC1)c1c(NC(=O)C2CC2)sc2c1CC(Nc1nncn1-c1ccc(F)cc1)CC2 (stereo not shown) [Example 165, 2-(Cyclopropanecarbonylamino)-N-(cyclopropylmethyl)-5-[[4-(4-fluorophenyl)-1,2,4-triazol-3-yl]amino]-4,5,6,7-tetrahydrobenzothiophene-3-carboxamide] | < 1000 nM
